The numbers were not newly measured in US9314524B2, “Topical formulations of Flucytosine” (priority 2007, dated 2016), which cites them from elsewhere.

Data set [1] deals with 227 clinical yeast isolates. The conditions noted are these: for cross-resistance in fluconazole/itraconazole resistant C. albicans isolates: polyene antibiotics.
Another data set concerns C. glabrata. The conditions noted are these: 600-mg day for 2 to 3 weeks.
The test system of the next data set is C. albicans. The conditions noted are these: yeasts from 104 patients with vulvovaginal candidiasis.
Another data set has as its system Candida albicans. The conditions noted are these: 342 Candida albicans strains.
The test system of the next data set is Candida glabrata. The conditions noted are these: 68 Candida glabrata strains.
Another data set relates to Candida parapsilosis. As to conditions: 65 Candida parapsilosis strains.
The conditions of data set [2]: human, in vivo.
The test system of a further data set is Candida tropicalis. The conditions noted are these: 70 Candida tropicalis strains.
Another data set concerns C. tropicalis. The conditions noted are these: 200-mg for 14 days, second line, 3 patients treated.

The structures appear in SMILES notation.

Take `C[C@@H]1[C@H](O)[C@@H](C)/C=C/C=C/C=C/C=C/C=C/C=C/C=C/[C@H](O[C@@H]2O[C@H](C)[C@@H](O)[C@H](N)[C@@H]2O)C[C@@H]2O[C@](O)(C[C@@H](O)C[C@@H](O)[C@H](O)CC[C@@H](O)C[C@@H](O)CC(=O)O[C@H]1C)C[C@H](O)[C@H]2C(=O)O` [amphotericin B]: the “cross-resistance in fluconazole/itraconazole resistant C. albicans isolates” value in data set [1] is recorded as “no cross-resistance”.

`OB(O)O` [boric acid]: in the data set on C. glabrata, the “clinical and mycological success” value is listed as 64%; the “clinical and mycological success, symptomatic women” value is given as 47 of 73.

With `OC(Cn1cncn1)(Cn1cncn1)c1ccc(F)cc1F` [fluconazole], the “resistant C. albicans isolated, share of cases” value in the data set with C. albicans is 13.46%. The yeast strains resistant result in data set [1] (227 vaginal clinical yeast isolates) is given as “thirteen”. Besides, in the data set with Candida albicans, the isolates showing resistance was 7.6%. Moreover, the isolates demonstrating resistance is recorded as 10.3% in the data set on Candida glabrata and 4.6% in the data set with Candida parapsilosis.

In the case of `Nc1nc(=O)[nH]cc1F` [flucytosine, 4-amino-5-fluoropyrimidin-2(1H)-one], the “plasma level that led to bone marrow depression and hepatotoxicity” value in data set [2] is reported as “greater than 100 mg/L”.

Take `CC(=O)N1CCN(c2ccc(OCC3COC(Cn4ccnc4)(c4ccc(Cl)cc4Cl)O3)cc2)CC1` (stereo not drawn) [ketoconazole]: the isolates resistant with Candida tropicalis is 2.9%. Also, the “patients in whom the infection recurred” value with C. tropicalis is “three”.

Consider `C[C@@H]1[C@H](O)[C@@H](C)/C=C/C=C/CC/C=C/C=C/C=C/C=C/C(O[C@H]2O[C@H](C)[C@@H](O)[C@H](N)[C@@H]2O)CC2O[C@](O)(CC(O)C(O)CCC(O)CC(O)CC(O)CC(=O)O[C@H]1C)CC(O)C2C(=O)O` (stereo partly drawn) [nystatin], for which the “cross-resistance in fluconazole/itraconazole resistant C. albicans isolates” value in data set [1] is recorded as “no cross-resistance”.
